These results are taken from patent publication US10898459B2, “Method of treating chronic kidney disease” (Panion & BF Biotech Inc., priority 2006, dated 2021).

For data set [1] the following is noted: 37° C.; cited from earlier work.

With ferric citrate [PAN031203A], the “Intrinsic Dissolution Rates” value (37° C., solution of pH 8) was 3.82 mg/cm^2/min.
Turning to ferric citrate [PAN031203B], the “Intrinsic Dissolution Rates” value (37° C., solution of pH 8) was 4.00 mg/cm^2/min.
On the same count and under the same terms, next, ferric citrate [PAN031203C]: 2.68 mg/cm^2/min; ferric citrate [PAN031203D]: 2.95 mg/cm^2/min; ferric citrate [PAN031203E]: 3.13 mg/cm^2/min.
Take “ferric citrate [STM-134, reference compound]”: where the note is “37° C., solution of pH 8”, the “Intrinsic Dissolution Rates” value was found to be 1.88 mg/cm^2/min and the “Mean Intrinsic Dissolution Rates” value was found to be 1.88 mg/cm^2/min. In addition, the “Mean Dissolution Rates” value (Table 2, one value for the pair of samples -1 and -2, listed as STM-134-1) was 2.47 mg/cm2/min.
With “ferric citrate [crystalline ferric citrate]”, the “rate of dissolution (time)” value in data set [1] was 10 to 12 h.
